Here are results for 1 molecule from patent US20150190523A1, “BIOAVAILABILITY OF ORAL METHYLNALTREXONE INCREASES WITH A PHOSPHATIDYLCHOLINE-BASED FORMULATION” (The University of Chicago, priority 2012, published 2015).

As usually defined, the AUC is concentration integrated over time. A low value points to low exposure. What is called half-life is the time in which the quantity being followed falls by half. A lower half-life goes with fast loss. In general, AUC(0-t) refers to exposure summed from dosing to a finite time, without extrapolation to infinity. A higher AUC(0-t) goes with more exposure. In general, Cmax refers to the peak of the concentration-time curve. What is called Tmax is the time at which the peak concentration occurs.

For data set [1] the following is noted: white crystalline powder, typically bromide salt, commercially provided; cited from earlier work.
A short description of data set [2]: Pharmacokinetics of MNTX in rat plasma after oral gavage (LC/MS/MS). As to conditions: male, Sprague-Dawley, in vivo, 250 mg/kg; for AUC(0-t) / Cmax / Tmax: rats, 250 mg/kg oral. The method, then:
Animals, MNTX Administration, and Blood Collection.
The experimental protocol was approved by the Institutional Animal Care and Use Committee. Male Sprague-Dawley rats (190-200 g) were obtained from Luye Pharma (Yantai, China) (Wang et al., 2010). Rats were allowed to acclimatize in environmentally controlled quarters (24±2° C. and a 12:12 h light-dark cycle). The rats were fasted for 12 h prior to the experiments.
Ten rats received test compounds via oral gavage. […] Venous blood samples were drawn from the ocular venous plexus at 0, 10, 20, 30, 45, 60, 90, 120, 150, 180, 240, 300, 420 and 540 min. The samples were placed into heparinized tubes and centrifuged at 1500×g for 5 min. The plasma samples were immediately stored in a freezer (−20° C.) for the pending assay.
Plasma Sample Processing.
A […] plasma sample was transferred to a 1.5 mL microcentrifuge tube. Then 0.2 mL of acetonitrile and […] of ketamine hydrochloride (I.S.) were mixed with the plasma sample and vortexed for 5 min before being centrifuged at 1500×g for 5 min. The supernatant was transferred to another tube and dried under a gentle flow of nitrogen. The residue was dissolved in […] of mobile phase, and then centrifuge at 15,000×g for 10 min. Lastly, 5 μL of supernatant was injected into the LC/MS/MS system for analysis.
Determination of MNTX Concentration by LC/MS/MS.
The concentrations of MNTX in rat plasma samples were determined with LC/MS/MS. MNTX plasma levels and the internal standard determined by LC/MS/MS were tested at the time points listed above. The assay was performed using an HPLC system with an Agilent 1100 pump, an Agilent 1100 auto sampler, and a Hanbang C18 column (150 mm×2.1 mm, 5 μm) with a guard column (Wang et al., 2011). For the mobile phase, methanol/water (60/40, containing 0.1% of acetic acid) was pumped at a flow rate of 0.2 mL/min. The samples were stored at 4° C. in the auto sampler before 5 μL was injected into the column. The detector was an API 4000 triple quadruple mass (MS) spectrometer (Applied Biosystems, Foster City, Calif.), and Analyst™ software version 4.1 was used for MS control and spectral processing. Using electrospray ionization (ESI) in positive ion mode, the MS parameters were optimized as follows: heater temperature, 350° C.; ion source voltage, 4000V. Multiple reaction monitoring was used, and the selected single charged precursor-production ion pairs were m/z 356.08→226.95 for MNTX and m/z 237.93→125.05 for ketamine hydrochloride.
Data analysis. Pharmacokinetic data were analyzed by software (Kinetic 4.4; Thermo Electron Co., Waltham. Mass.). All data were expressed as the mean±standard error (S.E.). A one-way ANOVA determined whether the results had statistical significance. The level of statistical significance was set at P<0.05.

Turning to `C[N+]1(CC2CC2)CCC23c4c5ccc(O)c4OC2C(=O)CCC3(O)C1C5` (centres unmarked) [MNTX, methylnaltrexone bromide], the solubility in water result in data set [1] is listed as “freely soluble in water”. In addition, the exposure (AUC) in data set [2] came out at 1060 ng·h/mL. The molecule also came in with a half-life in data set [2] of 4.32 h. Moreover, the area under the curve AUC(0-t) in data set [2] (AUC0-540 min, 0 to 540 min, mean±S.E.) amounted to 1410 ± 448 ng·h/mL; in data set [2] (First peak AUC0-150 min, 0 to 150 min, n=5, mean) it was 341 ± 94.5 ng·h/mL. Moreover, the Cmax in data set [2] (First peak Cmax, first plasma peak, n=5, mean) turned out to be 276 ± 102 ng/mL; in data set [2] (Second peak Cmax, second plasma peak, n=5, mean), 448 ± 126 ng/mL; in data set [2] (peak plasma concentration (Cmax), overall profile, mean±S.E.), 448 ± 126 ng/mL. Moreover, the Tmax was 2 h in data set [2] (First peak Tmax, first plasma peak); 3 h in data set [2] (Second peak Tmax, second plasma peak); 3 h in data set [2] (time to peak plasma concentration (Tmax), overall profile).
